Measured values from patent US8258114B2, “Modulation of glucose-6-phosphatase translocase expression” (Isis Pharmaceuticals, Inc., priority 2004, dated 2012).
Oligonucleotides are written 5' to 3', each unit as a sugar letter and its base; * is a phosphorothioate linkage, no mark a phosphodiester; rarer units and linkages stand in square brackets, end groups in braces. Plain capitals give the bases only. e = 2'-O-(2-methoxyethyl) (MOE); [5mC] = 5-methylcytosine; d = 2'-deoxy (DNA)

Test system: human glucose-6-phosphatase translocase mRNA
Experiment: Antisense inhibition of human glucose-6-phosphatase translocase mRNA in T-24 cells, real-time PCR (Table 4)
Type: cell-based
Conditions: 100 nM oligonucleotide, LIPOFECTIN, mRNA by real-time PCR
Description: The transitional cell bladder carcinoma cell line T-24 was obtained from the American Type Culture Collection (ATCC) (Manassas, Va.). T-24 cells were routinely cultured in complete McCoy's 5A basal media (Invitrogen Life Technologies, Carlsbad, Calif.) supplemented with 10% fetal bovine serum (Invitrogen Life Technologies, Carlsbad, Calif.). Cells were routinely passaged by trypsinization and dilution when they reached approximately 90% confluence. Cells were seeded into 96-well plates (Falcon-Primaria #3872) at a density of approximately 4000-6000 cells/well for use in oligomeric compound transfection experiments. When cells reached 65-75% confluency, they were treated with oligonucleotide. […] This transfection mixture was incubated at room temperature for approximately 0.5 hours. For cells grown in 96-well plates, wells were washed once with 100 μL OPTI-MEMTM-1 and then treated with 130 μL of the transfection mixture. Cells grown in 24-well plates or other standard tissue culture plates are treated similarly, using appropriate volumes of medium and oligonucleotide. Cells are treated and data are obtained in duplicate or triplicate. After approximately 4-7 hours of treatment at 37° C., the medium containing the transfection mixture was replaced with fresh culture medium. Cells were harvested 16-24 hours after oligonucleotide treatment. […] Prior to quantitative PCR analysis, primer-probe sets specific to the target gene being measured were evaluated for their ability to be “multiplexed” with a GAPDH amplification reaction. After isolation the RNA is subjected to sequential reverse transcriptase (RT) reaction and real-time PCR, both of which are performed in the same well. RT and PCR reagents were obtained from Invitrogen Life Technologies (Carlsbad, Calif.). […] The RT reaction was carried out by incubation for 30 minutes at 48° C. Following a 10 minute incubation at 95° C. to activate the PLATINUM® Taq, 40 cycles of a two-step PCR protocol were carried out: 95° C. for 15 seconds (denaturation) followed by 60° C. for 1.5 minutes (annealing/extension). Gene target quantities obtained by RT, real-time PCR were normalized using either the expression level of GAPDH, a gene whose expression is constant, or by quantifying total RNA using RiboGreenTM (Molecular Probes, Inc. Eugene, Oreg.). GAPDH expression was quantified by RT, real-time PCR, by being run simultaneously with the target, multiplexing, or separately. Total RNA was quantified using RiboGreenTM RNA quantification reagent (Molecular Probes, Inc. Eugene, Oreg.). A series of oligomeric compounds was designed to target different regions of human glucose-6-phosphatase translocase, using published sequences cited in Table 1. All compounds in Table 4 are chimeric oligonucleotides (“gapmers”) 20 nucleotides in length, composed of a central “gap” region consisting of 10 2'-deoxynucleotides, which is flanked on both sides ([NT]) by five-nucleotide “wings”. The wings are composed of 2'-O-(2-methoxyethyl) nucleotides, also known as 2'-MOE nucleotides. The internucleoside (backbone) linkages are phosphorothioate throughout the oligonucleotide. All cytidine residues are 5-methylcytidines. The compounds were analyzed for their effect on gene target mRNA levels by quantitative real-time PCR as described in other examples herein, using the following primer-probe set designed to hybridize to human glucose-6-phosphatase translocase: Forward primer: [NT] (incorporated herein as SEQ ID NO: 24) Reverse primer: [NT] (incorporated herein as SEQ ID NO: 25) And the PCR probe was: […] (incorporated herein as SEQ ID NO: 26), where FAM is the fluorescent dye and TAMRA is the quencher dye. Data are from experiments in which T-24 cells were treated with 100 nM of the antisense oligonucleotides of the present invention using LIPOFECTINTM. A reduction in expression is expressed as percent inhibition in Table 4. If present, “N.D.” indicates “not determined”. The control oligomeric compound used was SEQ ID NO: 11. […]

Sequence | % Inhib
AACCACACACAGTGCCCCAG (eA*eA*e[5mC]*e[5mC]*eA*d[5mC]*dA*d[5mC]*dA*d[5mC]*dA*dG*dT*dG*d[5mC]*e[5mC]*e[5mC]*e[5mC]*eA*eG; antisense) [ISIS 194853] | 35%
AGATAGGGCCAGCGTGCTGC (eA*eG*eA*eT*eA*dG*dG*dG*d[5mC]*d[5mC]*dA*dG*d[5mC]*dG*dT*eG*e[5mC]*eT*eG*e[5mC]; antisense) [ISIS 194832] | 55%
AGGCAAAGAATATGTTGACC (eA*eG*eG*e[5mC]*eA*dA*dA*dG*dA*dA*dT*dA*dT*dG*dT*eT*eG*eA*e[5mC]*e[5mC]; antisense) [ISIS 194830] | 68%
ATGGCGAGGGTTCCCGTAGT (eA*eT*eG*eG*e[5mC]*dG*dA*dG*dG*dG*dT*dT*d[5mC]*d[5mC]*d[5mC]*eG*eT*eA*eG*eT; antisense) [ISIS 194831] | 54%
CACCTATATCCAACTGCGCC (e[5mC]*eA*e[5mC]*e[5mC]*eT*dA*dT*dA*dT*d[5mC]*d[5mC]*dA*dA*d[5mC]*dT*eG*e[5mC]*eG*e[5mC]*e[5mC]; antisense) [ISIS 194837] | 81%
CAGGGCACTCATGTAGGAGC (e[5mC]*eA*eG*eG*eG*d[5mC]*dA*d[5mC]*dT*d[5mC]*dA*dT*dG*dT*dA*eG*eG*eA*eG*e[5mC]; antisense) [ISIS 194840] | 51%
CAGTTCCCAGATCTGCTGAG (e[5mC]*eA*eG*eT*eT*d[5mC]*d[5mC]*d[5mC]*dA*dG*dA*dT*d[5mC]*dT*dG*e[5mC]*eT*eG*eA*eG; antisense) [ISIS 194851] | 73%
CAGTTCCTGCTTGCCGCTCT (e[5mC]*eA*eG*eT*eT*d[5mC]*d[5mC]*dT*dG*d[5mC]*dT*dT*dG*d[5mC]*d[5mC]*eG*e[5mC]*eT*e[5mC]*eT; antisense) [ISIS 194856] | 56%
CATTAGTGCCCTGCAGCTGC (e[5mC]*eA*eT*eT*eA*dG*dT*dG*d[5mC]*d[5mC]*d[5mC]*dT*dG*d[5mC]*dA*eG*e[5mC]*eT*eG*e[5mC]; antisense) [ISIS 194828] | 73%
CCAGGCAGGCCCCTCCTTTT (e[5mC]*e[5mC]*eA*eG*eG*d[5mC]*dA*dG*dG*d[5mC]*d[5mC]*d[5mC]*d[5mC]*dT*d[5mC]*e[5mC]*eT*eT*eT*eT; antisense) [ISIS 194858] | 71%
CCTGCTTGCCGCTCTCACAG (e[5mC]*e[5mC]*eT*eG*e[5mC]*dT*dT*dG*d[5mC]*d[5mC]*dG*d[5mC]*dT*d[5mC]*dT*e[5mC]*eA*e[5mC]*eA*eG; antisense) [ISIS 194844] | 73%
CTGTAGCCCCCAAACATGGC (e[5mC]*eT*eG*eT*eA*dG*d[5mC]*d[5mC]*d[5mC]*d[5mC]*d[5mC]*dA*dA*dA*d[5mC]*eA*eT*eG*eG*e[5mC]; antisense) [ISIS 194835] | 59%
CTTGGCAATGGTGCTGAAGG (e[5mC]*eT*eT*eG*eG*d[5mC]*dA*dA*dT*dG*dG*dT*dG*d[5mC]*dT*eG*eA*eA*eG*eG; antisense) [ISIS 194847] | 66%
GATAGCCTCACTTCAGGTGG (eG*eA*eT*eA*eG*d[5mC]*d[5mC]*dT*d[5mC]*dA*d[5mC]*dT*dT*d[5mC]*dA*eG*eG*eT*eG*eG; antisense) [ISIS 194836] | 58%
GATGAACCCCAAATCATCCT (eG*eA*eT*eG*eA*dA*d[5mC]*d[5mC]*d[5mC]*d[5mC]*dA*dA*dA*dT*d[5mC]*eA*eT*e[5mC]*e[5mC]*eT; antisense) [ISIS 194827] | 55%
GCTGACTGTCCTTTCTCCTG (eG*e[5mC]*eT*eG*eA*d[5mC]*dT*dG*dT*d[5mC]*d[5mC]*dT*dT*dT*d[5mC]*eT*e[5mC]*e[5mC]*eT*eG; antisense) [ISIS 194859] | 62%

Sequence | % Inhib
GCTGCGCCAGCTGTAGCTCT (eG*e[5mC]*eT*eG*e[5mC]*dG*d[5mC]*d[5mC]*dA*dG*d[5mC]*dT*dG*dT*dA*eG*e[5mC]*eT*e[5mC]*eT; antisense) [ISIS 194843] | 66%
GGACTCTCTTCACTCAGCCT (eG*eG*eA*e[5mC]*eT*d[5mC]*dT*d[5mC]*dT*dT*d[5mC]*dA*d[5mC]*dT*d[5mC]*eA*eG*e[5mC]*e[5mC]*eT; antisense) [ISIS 194825] | 73%
GGTGCGGATGTTTCGTAGGA (eG*eG*eT*eG*e[5mC]*dG*dG*dA*dT*dG*dT*dT*dT*d[5mC]*dG*eT*eA*eG*eG*eA; antisense) [ISIS 194826] | 76%
GGTTGCCAGGATAGGGCCCA (eG*eG*eT*eT*eG*d[5mC]*d[5mC]*dA*dG*dG*dA*dT*dA*dG*dG*eG*e[5mC]*e[5mC]*e[5mC]*eA; antisense) [ISIS 194846] | 70%
GTCAAGGGTCATTAGTGCCC (eG*eT*e[5mC]*eA*eA*dG*dG*dG*dT*d[5mC]*dA*dT*dT*dA*dG*eT*eG*e[5mC]*e[5mC]*e[5mC]; antisense) [ISIS 194854] | 80%
TAACCAGTGGAGAGCACCCA (eT*eA*eA*e[5mC]*e[5mC]*dA*dG*dT*dG*dG*dA*dG*dA*dG*d[5mC]*eA*e[5mC]*e[5mC]*e[5mC]*eA; antisense) [ISIS 194833] | 60%
TAGTGGTACAGTGAGAATGA (eT*eA*eG*eT*eG*dG*dT*dA*d[5mC]*dA*dG*dT*dG*dA*dG*eA*eA*eT*eG*eA; antisense) [ISIS 194848] | 81%
TCCTTGTCCAAAGGGATCTC (eT*e[5mC]*e[5mC]*eT*eT*dG*dT*d[5mC]*d[5mC]*dA*dA*dA*dG*dG*dG*eA*eT*e[5mC]*eT*e[5mC]; antisense) [ISIS 194842] | 57%
TCTCTTCCACCAATGATGGC (eT*e[5mC]*eT*e[5mC]*eT*dT*d[5mC]*d[5mC]*dA*d[5mC]*d[5mC]*dA*dA*dT*dG*eA*eT*eG*eG*e[5mC]; antisense) [ISIS 194841] | 41%
TGACTGTCCTTTCTCCTGGA (eT*eG*eA*e[5mC]*eT*dG*dT*d[5mC]*d[5mC]*dT*dT*dT*d[5mC]*dT*d[5mC]*e[5mC]*eT*eG*eG*eA; antisense) [ISIS 194834] | 71%
TGCCTACAAGGCCCCCAACT (eT*eG*e[5mC]*e[5mC]*eT*dA*d[5mC]*dA*dA*dG*dG*d[5mC]*d[5mC]*d[5mC]*d[5mC]*e[5mC]*eA*eA*e[5mC]*eT; antisense) [ISIS 194849] | 65%
TGCGCCTAGTGGTACAGTGA (eT*eG*e[5mC]*eG*e[5mC]*d[5mC]*dT*dA*dG*dT*dG*dG*dT*dA*d[5mC]*eA*eG*eT*eG*eA; antisense) [ISIS 194829] | 82%
TGTCCTTTCTCCTGGATAAG (eT*eG*eT*e[5mC]*e[5mC]*dT*dT*dT*d[5mC]*dT*d[5mC]*d[5mC]*dT*dG*dG*eA*eT*eA*eA*eG; antisense) [ISIS 194852] | 44%
TGTTTCGTAGGAGGAAGAAG (eT*eG*eT*eT*eT*d[5mC]*dG*dT*dA*dG*dG*dA*dG*dG*dA*eA*eG*eA*eA*eG; antisense) [ISIS 194857] | 44%
TTCCTGCTTGCCGCTCTCAC (eT*eT*e[5mC]*e[5mC]*eT*dG*d[5mC]*dT*dT*dG*d[5mC]*d[5mC]*dG*d[5mC]*dT*e[5mC]*eT*e[5mC]*eA*e[5mC]; antisense) [ISIS 194845] | 50%
